Patent publication US9695154B2, “Heteroaryl inhibitors of sumo activating enzyme” (MILLENNIUM PHARMACEUTICALS, INC., priority 2013, dated 2017)

Target: T1, recombinant human SAE enzyme (Homo sapiens, UniProt Q9UBT2)
T1 sequence (Q9UBT2 1-640): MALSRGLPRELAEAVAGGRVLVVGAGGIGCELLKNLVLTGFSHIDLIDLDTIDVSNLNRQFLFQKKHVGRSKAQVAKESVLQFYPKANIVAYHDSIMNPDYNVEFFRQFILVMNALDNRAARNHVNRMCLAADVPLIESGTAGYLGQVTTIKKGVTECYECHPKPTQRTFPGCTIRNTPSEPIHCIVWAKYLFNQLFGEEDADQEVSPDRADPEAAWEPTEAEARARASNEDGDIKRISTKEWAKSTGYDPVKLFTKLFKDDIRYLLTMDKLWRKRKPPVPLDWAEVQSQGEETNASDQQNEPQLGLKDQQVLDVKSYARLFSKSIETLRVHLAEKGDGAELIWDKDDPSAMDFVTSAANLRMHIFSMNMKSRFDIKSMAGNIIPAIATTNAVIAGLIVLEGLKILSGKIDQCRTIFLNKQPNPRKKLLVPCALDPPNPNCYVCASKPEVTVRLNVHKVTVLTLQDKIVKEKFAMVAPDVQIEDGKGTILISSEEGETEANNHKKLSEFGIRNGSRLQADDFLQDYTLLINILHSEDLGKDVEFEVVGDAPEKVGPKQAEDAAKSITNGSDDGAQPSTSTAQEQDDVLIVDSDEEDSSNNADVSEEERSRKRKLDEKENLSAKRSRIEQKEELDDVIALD
T1 sequence (Q9UBE0 1-346 partner): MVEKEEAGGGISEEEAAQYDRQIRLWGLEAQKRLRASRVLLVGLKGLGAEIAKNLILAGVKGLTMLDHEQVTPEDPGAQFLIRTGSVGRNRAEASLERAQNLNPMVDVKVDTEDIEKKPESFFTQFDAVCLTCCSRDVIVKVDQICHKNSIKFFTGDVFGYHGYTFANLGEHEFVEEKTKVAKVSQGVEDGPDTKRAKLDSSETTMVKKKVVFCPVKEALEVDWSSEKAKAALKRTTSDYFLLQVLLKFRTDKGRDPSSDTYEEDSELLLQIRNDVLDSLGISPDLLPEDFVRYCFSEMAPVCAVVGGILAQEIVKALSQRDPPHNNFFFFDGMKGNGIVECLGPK
Assay: SAE HTRF Enzyme Assay
Assay type: biochemical
Conditions: for IC50: class symbols A-C; for inhibition at 0.111 µM: compound concentration 0.111 μM, read-out: Percent Inhibition
Summary of the method: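 Reaction with 0.11 nM recombinant human SAE, 0.5 μM ATP, 0.01 μM Ubc9-GST, 0.125 μM Sumo-Flag in HEPES pH 7.5, MgCl2, GSH, BSA, 105 min at 24 °C. Stopped with EDTA/KF buffer carrying Eu-anti-Flag and anti-GST-APC; HTRF read after 2 h; % inhibition or IC50.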

Compound | IC50 [nM] | inhibition at 0.111 µM [%]
NS(=O)(=O)OC[C@H]1C[C@@H](Nc2ncncc2C(=O)c2ccn(Cc3ccccc3C(F)(F)F)n2)C[C@@H]1O [Compound I-226, [(1R,2S,4R)-2-hydroxy-4-{[5-({1-[2-(trifluoromethyl)benzyl]-1H-pyrazol-3-yl}carbonyl)pyrimidin-4-yl]amino}cyclopentyl]methyl sulfamate] | 10 to 100 | 85
COCC#CCn1ccc(C(=O)c2cncnc2N[C@@H]2C[C@H](COS(N)(=O)=O)[C@@H](O)[C@@H]2F)c1 [Compound I-236, {(1R,2R,3R,4R)-3-fluoro-2-hydroxy-4-[(5-{[1-(4-methoxybut-2-yn-1-yl)-1H-pyrrol-3-yl]carbonyl}pyrimidin-4-yl)amino]cyclopentyl}methyl sulfamate] | 10 to 100 | 54
COC(C)c1cc(C(=O)c2cncnc2N[C@@H]2C[C@H](COS(N)(=O)=O)[C@@H](O)C2)nn1Cc1cccc(Br)c1 (mixture of isomers) [Compound I-369, [(1R,2S,4R)-4-{[5-({1-(3-bromobenzyl)-5-[(1S)-1-methoxyethyl]-1H-pyrazol-3-yl}carbonyl)pyrimidin 4-yl]amino)-2-hydroxycyclopentyl]methyl sulfamate and [(1R,2S,4R)-4-{[5-({1-(3-bromobenzyl)-5-[(1R)-1-methoxyethyl]-1H-pyrazol-3-yl}carbonyl)pyrimidin-4-yl]amino}-2-hydroxycyclopentyl]methyl sulfamate] | < 10 | 98
NS(=O)(=O)OC[C@H]1C[C@@H](Nc2ncncc2C(=O)c2ccn(Cc3cc(C(F)(F)F)cc(C(F)(F)F)c3)c2)C[C@@H]1O [Compound I-168, [(1R,2S,4R)-4-{[5-({1-[3,5-Bis(trifluoromethyl)benzyl]-1H-pyrrol-3-yl}carbonyl)pyrimidin-4-yl]amino}-2-hydroxycyclopentyl]methylsulfamate] | < 10 | 94
CC(c1cccc(Br)c1)n1ccc(C(=O)c2cncnc2N[C@@H]2C[C@H](COS(N)(=O)=O)[C@@H](O)C2)n1 (single isomer, unassigned) [Compound I-315, [(1R,2S,4R)-4-{[5-({1-[(1S)-1-(3-bromophenyl)ethyl]-1H-pyrazol-3-yl}carbonyl)pyrimidin-4-yl]amino}-2-hydroxycyclopentyl]methyl sulfamate or [(1R,2S,4R)-4-{[5-({1-[(1R)-1-(3-bromophenyl)ethyl]-1H-pyrazol-3-yl}carbonyl)pyrimidin-4-yl]amino}-2-hydroxycyclopentyl]methyl sulfamate] | < 10 | 99
NS(=O)(=O)OC[C@H]1C[C@@H](Nc2ccncc2C(=O)c2ccn(Cc3ccc(Cl)c(C(F)(F)F)c3)n2)C[C@@H]1O [Compound I-174, [(1R,2S,4R)-4-{[3-({1-[4-chloro-3-(trifluoromethyl)benzyl]-1H-pyrazol-3-yl}carbonyl)pyridin-4-yl]amino}-2-hydroxycyclopentyl]methyl sulfamate] | < 10 | 93
NS(=O)(=O)OC[C@H]1C[C@@H](Nc2ncncc2C(=O)c2ccn(CC#CC3(O)CCOCC3)n2)C[C@@H]1O [Compound I-27, [(1R,2S,4R)-2-hydroxy-4-{[5-({1-[3-(4-hydroxytetrahydro-2H-pyran-4-yl)prop-2-yn-1-yl]-1H-pyrazol-3-yl}carbonyl)pyrimidin-4-yl]amino}cyclopentyl]methyl sulfamate] | 100 to 1000 | 9
NS(=O)(=O)OC[C@H]1C[C@@H](Nc2ncncc2C(=O)c2ccn(CC(=O)N3CCCC3)n2)[C@@H](F)[C@@H]1O [Compound I-19, [(1R,2R,3R,4R)-3-Fluoro-2-hydroxy-4-{[5-({1-[2-oxo-2-(pyrrolidin-1-yl)ethyl]-1H-pyrazol-3-yl}carbonyl)pyrimidin-4-yl]amino}cyclopentyl]methyl sulfamate] | 100 to 1000 | 20
